According to patent publication US11357779B2 (G1 Therapeutics, Inc., priority 2018, dated 2022):
Read-outs that look alike come from different tables or passages of the source.

Test: Plasma concentration versus time of Compound I and metabolite Compound III in patients dosed QD or BID with Form B of Compound II plus fulvestrant
Format: in vivo, human
Settings: for Trough Compound I Concentration, Max / Trough Compound I Concentration, Mean / Trough Compound I Concentration, Median / Trough Compound I Concentration, Min / Compound I Concentration, Max / Compound I Concentration, Median: Cohort 8, 200 mg BID of Form B; for concentration at 0 h / concentration at 1 h / concentration at 2 h / concentration at 3 h / concentration at 4 h / concentration at 6 h / concentration at 8 h / concentration at 10 h / concentration at 12 h / concentration at 8 day / concentration at 15 day / concentration at 22 day: human, plasma, oral, 100 mg; for concentration at 1 h: Day 1, 1.0 h; for concentration at 2 h: Day 1, 2.0 h; for concentration at 3 h: Day 1, 3.0 h; for concentration at 4 h: Day 1, 4.0 h; for concentration at 6 h: Day 1, 6.0 h; for concentration at 8 h: Day 1, 8.0 h; for concentration at 10 h: Day 1, 10.0 h; for concentration at 12 h: Day 1, 12.0 h
From the text: Patients were enrolled into 1 of 2 parallel, independently operating, dose-escalation dosing cohorts with Form B of Compound II administered continuously either once daily (QD) or twice daily (BID) with food with fixed-dose fulvestrant (intramuscularly every 14 days for the first three injections and then every 28 days). Pre- or perimenopausal patients also received goserelin for the duration of study treatment. A […] agonist was started at least 28 days before the first dose of Form B, and those patients who were taking another LHRH agonist were switched to goserelin on Day 1. Patients were split into […] cohorts providing once a day (QD) dosing of 200 mg, 300 mg, 400 mg, 500 mg, or 650 mg of Form B, or twice a day (BID) dosing of 100 mg, 150 mg, or 200 mg of Form B. The second dose in BID cohorts was not administered in the evening until at least 12 hours after the initial morning dose of Form B. The dosing cohorts for Form B of Compound II are provided in Table 1.
Blood samples were collected at the following time points relative to the morning dose of Form B at Day 1 and at Day 29: pre-dose (0 hour) and 1, 2, 3, 4, 6, 8, 10, 12 (prior to the evening dose in the BID cohorts), and 24 (prior to the next day's morning dose) hours after dosing. A 5-minute time window was allowed for samples collected between the predose and 3 hours after Form B dosing. A 15-minute window was allowed for samples collected between 4 to 12 hours after Form B dosing. A 1-hour window was allowed for the sample collected 24 hours after Form B dosing. Blood samples for Compound I PK trough levels were collected pre-dose at Day 8, Day 15, and Day 22 prior to the morning administration of Compound I. Plasma concentrations of Compound I and its metabolite, Compound III, were measured using validated methods.
Analysis of plasma concentration versus time data for calculation of standard pharmacokinetic (PK) parameters following oral administration was conducted using Phoenix WinNonlin version 6.3 using actual blood sampling times.

[1] = 100 mg BID of Form B, Mean, read-out: Compound I Concentration
[2] = 100 mg BID of Form B, Median, read-out: Compound I Concentration

CC(C)N1CCN(c2ccc(Nc3ncc4cc5n(c4n3)C3(CCCCC3)CNC5=O)nc2)CC1 [Compound I, 2′-((5-(4-isopropylpiperazin-1-yl)pyridin-2-yl)amino)-7′,8′-dihydro-6′H-spiro[cyclohexane-1,9′-pyrazino[1′,2′:1,5]pyrrolo[2,3-d]pyrimidin]-6′-one]
Trough Compound I Concentration, Max (Day 8): 19.7 ng/mL
Trough Compound I Concentration, Mean (Day 8): 9.41 ng/mL
Trough Compound I Concentration, Median (Day 8): 6.82 ng/mL
Trough Compound I Concentration, Min (Day 8): 1.72 ng/mL
Trough Compound I Concentration, Max (Day 15): 16.3 ng/mL
Trough Compound I Concentration, Mean (Day 15): 11.0 ng/mL
Trough Compound I Concentration, Median (Day 15): 11.0 ng/mL
Trough Compound I Concentration, Min (Day 15): 5.71 ng/mL
Trough Compound I Concentration, Max (Day 22): 15.5 ng/mL
Trough Compound I Concentration, Mean (Day 22): 7.11 ng/mL
Trough Compound I Concentration, Median (Day 22): 5.83 ng/mL
Trough Compound I Concentration, Min (Day 22): 0.00 ng/mL
Compound I Concentration, Max (Day 29, 0.0 h): 17.2 ng/mL
Compound I Concentration, Median (Day 29, 0.0 h): 6.54 ng/mL
Compound I Concentration, Max (Day 29, 1.0 h): 13.3 ng/mL
Compound I Concentration, Median (Day 29, 1.0 h): 9.29 ng/mL
Compound I Concentration, Max (Day 29, 2.0 h): 17.0 ng/mL
Compound I Concentration, Median (Day 29, 2.0 h): 13.3 ng/mL
Compound I Concentration, Max (Day 29, 3.0 h): 22.5 ng/mL
Compound I Concentration, Median (Day 29, 3.0 h): 15.6 ng/mL
Compound I Concentration, Max (Day 29, 4.0 h): 30.5 ng/mL
Compound I Concentration, Median (Day 29, 4.0 h): 25.1 ng/mL
Compound I Concentration, Median (Day 29, 6.0 h): 21.1 ng/mL
Compound I Concentration, Median (Day 29, 8.0 h): 14.8 ng/mL
Compound I Concentration, Median (Day 29, 10.0 h): 11.7 ng/mL
Compound I Concentration, Median (Day 29, 12.0 h): 12.4 ng/mL
concentration at 0 h (100 mg BID of Form B, Day 1, 0.0 h, Mean, read-out: Compound I Concentration): 0 ng/mL
concentration at 0 h (100 mg BID of Form B, Day 1, 0.0 h, Median, read-out: Compound I Concentration): 0 ng/mL
concentration at 1 h [1]: 2.8 ng/mL
concentration at 1 h [2]: 2.6 ng/mL
concentration at 2 h [1]: 6.21 ng/mL
concentration at 2 h [2]: 5.71 ng/mL
concentration at 3 h [1]: 8.72 ng/mL
concentration at 3 h [2]: 8.09 ng/mL
concentration at 4 h [1]: 8.98 ng/mL
concentration at 4 h [2]: 7.47 ng/mL
concentration at 6 h [1]: 5.7 ng/mL
concentration at 6 h [2]: 5.12 ng/mL
concentration at 8 h [1]: 4.07 ng/mL
concentration at 8 h [2]: 3.71 ng/mL
concentration at 10 h [1]: 3.29 ng/mL
concentration at 10 h [2]: 2.91 ng/mL
concentration at 12 h [1]: 2.93 ng/mL
concentration at 12 h [2]: 2.2 ng/mL
concentration at 8 day (Cohort 6, 100 mg BID of Form B, Day 8, read-out: Trough Compound I Concentration, Max): 23.7 ng/mL
concentration at 8 day (Cohort 6, 100 mg BID of Form B, Day 8, read-out: Trough Compound I Concentration, Mean): 8.78 ng/mL
concentration at 8 day (Cohort 6, 100 mg BID of Form B, Day 8, read-out: Trough Compound I Concentration, Median): 5.49 ng/mL
concentration at 8 day (Cohort 6, 100 mg BID of Form B, Day 8, read-out: Trough Compound I Concentration, Min): 3.29 ng/mL
concentration at 15 day (Cohort 6, 100 mg BID of Form B, Day 15, read-out: Trough Compound I Concentration, Max): 22 ng/mL
concentration at 15 day (Cohort 6, 100 mg BID of Form B, Day 15, read-out: Trough Compound I Concentration, Mean): 8.92 ng/mL
concentration at 15 day (Cohort 6, 100 mg BID of Form B, Day 15, read-out: Trough Compound I Concentration, Median): 6.34 ng/mL
concentration at 15 day (Cohort 6, 100 mg BID of Form B, Day 15, read-out: Trough Compound I Concentration, Min): 3.31 ng/mL
concentration at 22 day (Cohort 6, 100 mg BID of Form B, Day 22, read-out: Trough Compound I Concentration, Max): 10.9 ng/mL
concentration at 22 day (Cohort 6, 100 mg BID of Form B, Day 22, read-out: Trough Compound I Concentration, Mean): 5.7 ng/mL
concentration at 22 day (Cohort 6, 100 mg BID of Form B, Day 22, read-out: Trough Compound I Concentration, Median): 4.42 ng/mL
concentration at 22 day (Cohort 6, 100 mg BID of Form B, Day 22, read-out: Trough Compound I Concentration, Min): 2.34 ng/mL
concentration at 0 h (Cohort 6, 100 mg BID of Form B, Day 29, 0.0 h, read-out: Compound I Concentration, Max): 9.2 ng/mL
concentration at 0 h (Cohort 6, 100 mg BID of Form B, Day 29, 0.0 h, read-out: Compound I Concentration, Mean): 4.35 ng/mL
